ChEMBL document CHEMBL1201862, “PubChem BioAssay data set” (2004)
Calls of active or inactive are those of the source.

Tests used:
[1] = molecular target: Type-1 angiotensin II receptor (Homo sapiens, UniProt P30556); assay: agonist activity at AGTR1 – cell-based, uHTS hits, selectivity assay for APJ receptor agonist project, dose response (AID 488865); format: functional;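 further: beta-arrestin recruitment to AT1 measured by enzyme fragment complementation luminescence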
Trypsin = Trypsin (Sus scrofa, UniProt P00761); assay: trypsin protease activity blockade – biochemical, quenched peptide fluorescence, cherry-pick, selectivity assay for Rce1 protease inhibitor project, dose response (AID 488789)
Sequence of Trypsin (P00761 whole entry): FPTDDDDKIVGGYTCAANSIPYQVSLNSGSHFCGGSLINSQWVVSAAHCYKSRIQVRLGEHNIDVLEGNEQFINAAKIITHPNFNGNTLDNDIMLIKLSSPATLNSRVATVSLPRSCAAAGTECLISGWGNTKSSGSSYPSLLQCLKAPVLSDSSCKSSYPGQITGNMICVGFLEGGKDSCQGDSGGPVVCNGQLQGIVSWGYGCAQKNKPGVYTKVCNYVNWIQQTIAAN

CAAX prenyl protease 2 = molecular target: T1, CAAX prenyl protease 2 (Saccharomyces cerevisiae S288c, UniProt Q03530); format: biochemical
T1 sequence (Q03530 whole entry): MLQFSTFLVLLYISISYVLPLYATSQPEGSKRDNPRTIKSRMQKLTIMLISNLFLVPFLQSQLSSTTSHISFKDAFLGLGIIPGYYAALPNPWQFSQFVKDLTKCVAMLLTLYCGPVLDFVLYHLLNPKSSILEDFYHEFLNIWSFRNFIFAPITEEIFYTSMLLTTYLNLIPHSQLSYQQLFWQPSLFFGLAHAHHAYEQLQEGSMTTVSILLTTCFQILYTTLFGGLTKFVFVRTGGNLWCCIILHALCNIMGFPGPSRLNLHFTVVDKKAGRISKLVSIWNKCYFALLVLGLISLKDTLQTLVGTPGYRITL

Coagulation factor XII = Coagulation factor XII (Homo sapiens, UniProt P00748); assay: Factor XIIa Dose Response Confirmation from Single Well HTS. [Related pubchem assays (depositor defined):AID701]; format: functional
Sequence of Coagulation factor XII (P00748 20-372 limits assumed): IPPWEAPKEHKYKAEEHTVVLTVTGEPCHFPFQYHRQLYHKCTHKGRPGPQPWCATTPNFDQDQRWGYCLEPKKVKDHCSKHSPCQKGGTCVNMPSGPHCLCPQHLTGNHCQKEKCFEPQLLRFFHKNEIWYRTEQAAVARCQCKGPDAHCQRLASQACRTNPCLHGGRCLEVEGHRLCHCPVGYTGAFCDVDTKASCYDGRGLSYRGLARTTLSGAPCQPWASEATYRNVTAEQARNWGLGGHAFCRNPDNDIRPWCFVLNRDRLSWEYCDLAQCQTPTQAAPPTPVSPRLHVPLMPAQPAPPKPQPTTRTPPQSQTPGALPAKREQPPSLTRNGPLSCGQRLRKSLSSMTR
Sequence of Coagulation factor XII (P00748 373-615 limits assumed): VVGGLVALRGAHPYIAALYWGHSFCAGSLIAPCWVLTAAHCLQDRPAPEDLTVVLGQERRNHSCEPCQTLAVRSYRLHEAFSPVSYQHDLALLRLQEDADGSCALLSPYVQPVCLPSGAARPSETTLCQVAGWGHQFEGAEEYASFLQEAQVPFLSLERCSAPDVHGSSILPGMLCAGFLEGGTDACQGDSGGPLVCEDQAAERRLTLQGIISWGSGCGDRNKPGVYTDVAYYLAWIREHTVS

[2] = Luminescence Cell-Based Dose Response HTS to Identify Inhibitors of 5'UTR Stem-Loop Driven Prion Protein mRNA Translation in H4 Neuroglioblastoma Cells. [Related pubchem assays: 1827 (Project Summary), 1813 (Primary HTS)]; format: functional
[3] = luciferase reporter signal suppression in cells – H4 neuroglioma cells, luminescence, dose response (AID 1990); format: functional, cell-based
[4] = alpha-synuclein stem-loop luciferase translation blockers – H4 neuroglioma cells, luminescence, confirmation (AID 1988); format: functional, cell-based
[5] = molecular target: Sphingosine 1-phosphate receptor 4 (Homo sapiens, UniProt O95977); assay: Late-stage fluorescence dose response cell-based assay to identify agonists of the Sphingosine 1-Phosphate Receptor 4 (S1P4): purchased compounds EC50. [Related pubchem assays (depositor defined):AID1509, AID1523, AID1563, AID1686, AID1701, AID1801]; format: functional
Sequence of Sphingosine 1-phosphate receptor 4 (O95977 whole entry): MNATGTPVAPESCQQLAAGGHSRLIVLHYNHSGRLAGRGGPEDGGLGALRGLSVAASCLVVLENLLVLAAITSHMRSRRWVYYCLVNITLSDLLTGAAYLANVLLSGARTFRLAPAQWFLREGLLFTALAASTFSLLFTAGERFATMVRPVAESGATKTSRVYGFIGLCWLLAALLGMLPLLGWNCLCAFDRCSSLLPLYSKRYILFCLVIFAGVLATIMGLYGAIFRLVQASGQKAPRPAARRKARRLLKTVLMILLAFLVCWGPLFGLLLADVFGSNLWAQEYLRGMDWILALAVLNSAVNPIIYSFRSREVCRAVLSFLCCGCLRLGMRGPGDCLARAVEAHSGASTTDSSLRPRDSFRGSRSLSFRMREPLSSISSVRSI

BJ [6] = assay: BJ-TERT fibroblast viability loss – cell-based, RAS-independent, luminescence, dose response (AID 1933); format: functional; conditions: Homo sapiens
[7] = Luminescence Cell-Based Dose HTS Response to Identify Inhibitors of 5'UTR Stem-Loop Driven Prion Protein mRNA Translation in H4-C Neuroglioblastoma Cells. [Related pubchem assays (depositor defined):AID1814, AID1827]; format: functional
[8] = Luminescence Cell-Based Dose Retest to Confirm Activators of 5'UTR Stem-Loop Driven Alpha-Synuclein mRNA Translation in H4 Neuroglioblastoma Cells. [Related pubchem assays (depositor defined):AID1813, AID1829]; format: functional
BJ [9] = assay: cells; format: functional, cell-based; conditions: Homo sapiens
[10] = DRD fibroblast viability loss – cell-based, non-viral oncogenic, luminescence, dose response (AID 1934); format: functional; conditions: Homo sapiens
BJ [11] = assay: BJ-TERT-LT-ST fibroblast viability loss – cell-based, RAS-independent, luminescence, dose response (AID 1935); format: functional; conditions: Homo sapiens;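 further: BJ fibroblasts immortalized with TERT plus LT and ST oncogenes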
[12] = Luminescence Cell-Based Dose Response HTS to Identify Activators of Luciferase Translation or Activity in H4-C Neuroglioblastoma Cells. [Related pubchem assays: 1829 (Project Summary), 1814 (Primary HTS)]; format: functional
[13] = Luminescence Cell-Based Dose Response HTS to Identify Inhibitors of Luciferase Translation or Activity in H4-C Neuroglioblastoma Cells. [Related pubchem assays: 1813 (Primary HTS), 1827 (Project Summary)]; format: functional
[14] = Luminescence Cell-Based Dose Response HTS to Identify Activators of 5'UTR Stem-Loop Driven Prion Protein mRNA Translation in H4-C Neuroglioblastoma Cells. [Related pubchem assays: 1829 (Project Summary), 1814 (Primary HTS)]; format: functional
[15] = Luminescence Cell-Based Dose Confirmation HTS to Identify Inhibitors of 5'UTR Stem-Loop Driven Alpha-Synuclein mRNA Translation in H4 Neuroglioblastoma Cells. [Related pubchem assays: 1827 (Project Summary), 1813 (Primary HTS)]; format: functional
HEK293 [16] = assay: inhibition of NOD1-driven NF-kB reporter – cell-based, luminescence, uHTS, primary screen (AID 1578); format: functional; conditions: Homo sapiens
[17] = molecular target: T2, Nucleotide-binding oligomerization domain-containing protein 1 (Homo sapiens, UniProt Q9Y239); assay: blockers of NOD1 pathway activity – revised, SAR follow-up (AID 2333); format: functional
T2 sequence (Q9Y239 whole entry): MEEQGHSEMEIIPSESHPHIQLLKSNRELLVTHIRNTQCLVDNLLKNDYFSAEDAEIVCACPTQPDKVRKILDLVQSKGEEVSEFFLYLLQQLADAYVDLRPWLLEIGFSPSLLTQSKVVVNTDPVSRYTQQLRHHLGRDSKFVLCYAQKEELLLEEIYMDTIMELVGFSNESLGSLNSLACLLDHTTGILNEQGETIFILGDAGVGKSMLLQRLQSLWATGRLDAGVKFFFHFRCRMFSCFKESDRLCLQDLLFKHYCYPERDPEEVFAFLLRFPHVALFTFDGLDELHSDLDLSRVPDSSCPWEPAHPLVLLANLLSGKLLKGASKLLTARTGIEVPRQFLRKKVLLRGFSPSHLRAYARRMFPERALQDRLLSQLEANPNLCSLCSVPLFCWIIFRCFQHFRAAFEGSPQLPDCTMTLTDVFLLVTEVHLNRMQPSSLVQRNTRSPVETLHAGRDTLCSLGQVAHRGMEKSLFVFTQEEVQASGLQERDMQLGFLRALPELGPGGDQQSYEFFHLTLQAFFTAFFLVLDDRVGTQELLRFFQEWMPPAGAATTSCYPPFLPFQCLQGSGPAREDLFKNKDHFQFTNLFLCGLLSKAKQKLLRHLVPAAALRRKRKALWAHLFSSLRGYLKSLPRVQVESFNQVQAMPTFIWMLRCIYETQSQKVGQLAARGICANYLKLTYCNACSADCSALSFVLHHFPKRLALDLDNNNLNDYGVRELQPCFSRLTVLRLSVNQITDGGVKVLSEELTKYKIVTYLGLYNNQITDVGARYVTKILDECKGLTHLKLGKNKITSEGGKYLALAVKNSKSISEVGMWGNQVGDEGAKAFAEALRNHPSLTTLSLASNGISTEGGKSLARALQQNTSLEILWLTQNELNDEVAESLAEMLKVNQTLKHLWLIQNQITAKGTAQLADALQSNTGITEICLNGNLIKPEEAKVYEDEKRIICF

[18] = molecular target: Heat shock protein HSP 90-alpha (Homo sapiens, UniProt P07900); format: functional, organism-based
Tumor necrosis factor = Tumor necrosis factor (Homo sapiens, UniProt P01375); assay: analog potency on TNFa NF-kB signaling – cell-based, revised, SAR follow-up (AID 2337); format: functional
Sequence of Tumor necrosis factor (P01375 whole entry): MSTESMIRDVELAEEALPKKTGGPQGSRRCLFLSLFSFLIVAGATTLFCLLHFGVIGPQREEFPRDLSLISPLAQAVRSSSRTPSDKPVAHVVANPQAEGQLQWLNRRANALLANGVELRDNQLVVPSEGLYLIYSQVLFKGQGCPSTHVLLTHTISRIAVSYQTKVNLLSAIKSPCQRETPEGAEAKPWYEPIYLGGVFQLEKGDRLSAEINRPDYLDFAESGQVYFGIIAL

[19] = molecular target: G-protein coupled receptor 35 (Homo sapiens, UniProt Q9HC97); assay: inhibition of zaprinast-stimulated GPR35 beta-arrestin translocation – imaging, U2OS, beta-arrestin-GFP, zaprinast agonist, primary screen (AID 2058); format: functional;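 further: antagonist potency meaning inhibition of agonist-induced arrestin redistribution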
Sequence of G-protein coupled receptor 35 (Q9HC97 whole entry): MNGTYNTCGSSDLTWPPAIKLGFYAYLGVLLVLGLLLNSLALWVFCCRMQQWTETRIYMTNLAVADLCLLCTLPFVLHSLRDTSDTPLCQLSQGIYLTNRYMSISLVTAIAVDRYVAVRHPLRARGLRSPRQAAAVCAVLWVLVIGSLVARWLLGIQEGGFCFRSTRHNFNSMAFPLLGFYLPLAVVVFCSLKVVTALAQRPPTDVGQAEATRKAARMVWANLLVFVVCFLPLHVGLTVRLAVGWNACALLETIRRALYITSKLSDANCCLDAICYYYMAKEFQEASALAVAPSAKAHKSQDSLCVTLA

[20] = viability loss in THP-1 monocytes – THP-1 cells, cytotoxicity control for Vif-APOBEC3G degradation inhibitor project, dose response (AID 1117359); format: functional; conditions: THP-1
Beta-galactosidase = Beta-galactosidase (Escherichia coli, UniProt Q8VNN2); assay: detection-enzyme interference by beta-gal modulators – biochemical, E. coli enzyme, set 3, artefact control for CCR6 antagonist project, dose response (AID 504712); format: functional
Sequence of Beta-galactosidase (Q8VNN2 whole entry): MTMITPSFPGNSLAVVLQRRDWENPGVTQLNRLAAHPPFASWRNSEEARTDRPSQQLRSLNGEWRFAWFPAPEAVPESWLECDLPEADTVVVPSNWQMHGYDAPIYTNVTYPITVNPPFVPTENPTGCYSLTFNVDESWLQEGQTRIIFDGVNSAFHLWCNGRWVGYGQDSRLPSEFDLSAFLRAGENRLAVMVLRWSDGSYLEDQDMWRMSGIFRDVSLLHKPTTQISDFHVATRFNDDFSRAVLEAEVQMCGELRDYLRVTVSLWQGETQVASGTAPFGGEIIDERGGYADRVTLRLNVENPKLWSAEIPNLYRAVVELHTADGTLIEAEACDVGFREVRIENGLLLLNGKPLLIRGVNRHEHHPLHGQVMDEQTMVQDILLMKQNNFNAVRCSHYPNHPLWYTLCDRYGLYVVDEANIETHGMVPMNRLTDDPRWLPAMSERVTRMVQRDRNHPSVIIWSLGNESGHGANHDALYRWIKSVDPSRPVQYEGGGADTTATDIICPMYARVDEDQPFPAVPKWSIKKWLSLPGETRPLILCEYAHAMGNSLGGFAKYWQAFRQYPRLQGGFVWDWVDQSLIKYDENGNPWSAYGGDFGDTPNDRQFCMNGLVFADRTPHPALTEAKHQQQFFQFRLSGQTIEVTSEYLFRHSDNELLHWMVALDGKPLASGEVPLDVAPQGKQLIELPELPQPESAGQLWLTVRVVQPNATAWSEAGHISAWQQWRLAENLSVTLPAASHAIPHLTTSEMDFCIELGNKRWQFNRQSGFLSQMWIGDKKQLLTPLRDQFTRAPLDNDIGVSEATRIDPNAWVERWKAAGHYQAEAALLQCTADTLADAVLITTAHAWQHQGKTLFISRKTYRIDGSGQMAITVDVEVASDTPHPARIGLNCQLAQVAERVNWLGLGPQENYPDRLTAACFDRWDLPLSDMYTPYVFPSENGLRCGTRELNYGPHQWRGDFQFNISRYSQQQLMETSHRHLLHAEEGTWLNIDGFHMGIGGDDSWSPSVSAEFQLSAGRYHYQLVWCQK

Hexokinase HKDC1 = molecular target: T3, Hexokinase HKDC1 (Homo sapiens, UniProt Q2TB90); assay: inhibition of HKDC1 glucose phosphorylation – biochemical, W721R variant, dose response (AID 504729); format: functional
T3 sequence (Q2TB90 whole entry): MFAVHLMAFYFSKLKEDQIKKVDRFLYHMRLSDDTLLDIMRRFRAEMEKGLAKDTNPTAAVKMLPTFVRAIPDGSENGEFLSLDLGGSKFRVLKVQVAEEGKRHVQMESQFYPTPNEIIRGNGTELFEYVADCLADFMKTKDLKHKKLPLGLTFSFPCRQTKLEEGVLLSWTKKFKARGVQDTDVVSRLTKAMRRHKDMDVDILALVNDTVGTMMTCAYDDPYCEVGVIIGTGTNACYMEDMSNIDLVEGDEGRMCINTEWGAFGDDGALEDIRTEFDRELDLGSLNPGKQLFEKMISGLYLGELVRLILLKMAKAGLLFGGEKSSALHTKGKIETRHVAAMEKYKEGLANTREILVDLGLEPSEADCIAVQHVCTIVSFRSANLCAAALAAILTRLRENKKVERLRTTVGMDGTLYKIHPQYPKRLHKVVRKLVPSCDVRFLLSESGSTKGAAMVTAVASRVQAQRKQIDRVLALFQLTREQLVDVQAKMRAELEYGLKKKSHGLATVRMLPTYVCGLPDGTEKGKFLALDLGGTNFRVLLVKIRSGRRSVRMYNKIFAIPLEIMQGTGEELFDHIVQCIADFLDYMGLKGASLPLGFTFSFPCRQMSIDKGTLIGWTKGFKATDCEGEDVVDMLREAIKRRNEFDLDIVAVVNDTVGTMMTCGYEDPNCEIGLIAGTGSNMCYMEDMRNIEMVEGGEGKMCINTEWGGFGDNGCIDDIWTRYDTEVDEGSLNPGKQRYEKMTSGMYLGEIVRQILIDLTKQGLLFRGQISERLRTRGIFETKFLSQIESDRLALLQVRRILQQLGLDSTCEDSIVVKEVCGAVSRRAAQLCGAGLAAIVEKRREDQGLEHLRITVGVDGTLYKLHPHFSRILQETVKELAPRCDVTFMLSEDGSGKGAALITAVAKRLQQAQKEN

HEK293 [21] = assay: cells; format: functional, cell-based; conditions: Homo sapiens
HEK293 [22] = assay: cells; format: functional, cell-based; conditions: Homo sapiens; remark: listed apart in the source
[23] = molecular target: T4, Nucleotide-binding oligomerization domain-containing protein 2 (Homo sapiens, UniProt Q9HC29); assay: PubChem AID 2334; format: functional
T4 sequence (Q9HC29 whole entry, the tested form may be a part): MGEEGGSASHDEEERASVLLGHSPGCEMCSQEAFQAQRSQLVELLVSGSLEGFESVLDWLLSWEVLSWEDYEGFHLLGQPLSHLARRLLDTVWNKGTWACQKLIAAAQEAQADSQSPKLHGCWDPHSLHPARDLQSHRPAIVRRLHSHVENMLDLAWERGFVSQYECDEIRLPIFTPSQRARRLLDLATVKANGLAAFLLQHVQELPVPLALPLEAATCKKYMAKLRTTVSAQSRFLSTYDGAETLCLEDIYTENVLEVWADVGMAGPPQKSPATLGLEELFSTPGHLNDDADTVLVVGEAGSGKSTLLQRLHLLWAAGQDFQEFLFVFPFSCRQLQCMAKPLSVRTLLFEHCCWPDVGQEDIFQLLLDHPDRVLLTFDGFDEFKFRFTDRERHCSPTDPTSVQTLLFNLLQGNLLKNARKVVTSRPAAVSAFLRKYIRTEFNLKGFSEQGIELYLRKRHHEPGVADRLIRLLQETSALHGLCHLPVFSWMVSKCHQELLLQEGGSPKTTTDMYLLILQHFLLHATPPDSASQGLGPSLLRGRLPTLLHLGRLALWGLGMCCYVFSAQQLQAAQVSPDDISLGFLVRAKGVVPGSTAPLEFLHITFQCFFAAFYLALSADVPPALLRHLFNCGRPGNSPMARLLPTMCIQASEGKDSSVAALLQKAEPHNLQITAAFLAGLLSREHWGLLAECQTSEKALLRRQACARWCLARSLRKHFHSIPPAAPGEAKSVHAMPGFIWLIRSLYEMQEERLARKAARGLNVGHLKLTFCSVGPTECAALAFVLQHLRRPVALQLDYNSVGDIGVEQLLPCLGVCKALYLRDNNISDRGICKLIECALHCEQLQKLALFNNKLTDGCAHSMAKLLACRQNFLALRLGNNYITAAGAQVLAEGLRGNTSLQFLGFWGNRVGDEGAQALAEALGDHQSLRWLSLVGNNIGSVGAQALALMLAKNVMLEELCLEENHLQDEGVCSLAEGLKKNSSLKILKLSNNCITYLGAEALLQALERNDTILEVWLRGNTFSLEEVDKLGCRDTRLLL

HEK293 [24] = assay: cells; conditions: Homo sapiens
[25] = molecular target: T5, Runt-related transcription factor 1/Core-binding factor subunit beta (Homo sapiens, UniProt Q01196+Q13951); assay: disruptors of Runt domain/CBFb-SMMHC interaction – biochemical, FRET, Cerulean-Runt, Venus-CBFb-SMMHC, uHTS, […] (AID 1434); format: protein assay
T5 sequence (Q01196 whole entry, the tested form may be a part): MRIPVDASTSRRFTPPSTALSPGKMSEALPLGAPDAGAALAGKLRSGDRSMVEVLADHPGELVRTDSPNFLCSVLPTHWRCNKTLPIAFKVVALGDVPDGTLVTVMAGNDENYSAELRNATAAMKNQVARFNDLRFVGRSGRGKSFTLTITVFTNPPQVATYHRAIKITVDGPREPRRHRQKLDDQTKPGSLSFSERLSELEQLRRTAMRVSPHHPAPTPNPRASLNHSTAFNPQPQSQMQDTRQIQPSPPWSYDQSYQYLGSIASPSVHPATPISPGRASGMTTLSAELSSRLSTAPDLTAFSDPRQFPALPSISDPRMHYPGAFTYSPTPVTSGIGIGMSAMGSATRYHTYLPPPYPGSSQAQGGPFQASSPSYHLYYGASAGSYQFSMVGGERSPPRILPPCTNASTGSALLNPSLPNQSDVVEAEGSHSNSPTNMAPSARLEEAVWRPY
T5 sequence (Q13951 whole entry, the tested form may be a part): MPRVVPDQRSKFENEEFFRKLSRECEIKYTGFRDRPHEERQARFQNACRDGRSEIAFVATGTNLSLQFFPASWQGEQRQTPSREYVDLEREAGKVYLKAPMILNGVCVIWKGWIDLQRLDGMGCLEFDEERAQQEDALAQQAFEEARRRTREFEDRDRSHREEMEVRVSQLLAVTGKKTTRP

[26] = molecular target: T4, Nucleotide-binding oligomerization domain-containing protein 2; assay: inhibition of NOD2-driven NF-kB reporter – cell-based, luminescence, uHTS, HEK293 (AID 1566); format: functional
HEK293 [27] = assay: cells; format: functional, cell-based; conditions: Homo sapiens; remark: listed apart in the source
[28] = molecular target: T5, Runt-related transcription factor 1/Core-binding factor subunit beta; assay: Runt domain/CBFb-SMMHC interaction disruptors – biochemical, TR-FRET (AID 1438); format: protein assay
HEK293 [29] = assay: NOD2 signaling inhibitors in MDP-stimulated cells, cell-based, uHTS, luminescence (AID 2001); format: functional; conditions: Homo sapiens

Sequence of Type-1 angiotensin II receptor (P30556 whole entry, the tested form may be a part): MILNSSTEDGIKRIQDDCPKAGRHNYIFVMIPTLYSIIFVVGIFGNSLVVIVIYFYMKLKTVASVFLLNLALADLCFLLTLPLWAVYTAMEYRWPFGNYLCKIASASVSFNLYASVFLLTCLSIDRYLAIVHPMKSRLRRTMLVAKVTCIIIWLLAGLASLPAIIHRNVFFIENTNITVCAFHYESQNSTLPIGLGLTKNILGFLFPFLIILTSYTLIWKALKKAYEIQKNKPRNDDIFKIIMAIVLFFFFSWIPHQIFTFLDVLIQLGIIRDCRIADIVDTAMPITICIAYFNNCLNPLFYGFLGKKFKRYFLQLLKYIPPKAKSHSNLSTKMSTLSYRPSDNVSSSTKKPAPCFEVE

CCC(C)NC(=O)CSC1=Nc2ccccc2C2=NC(CC(=O)NCc3ccc(F)cc3)C(=O)N12 (stereo not drawn)
inactive: EC50 [1] > 100 µM
active: AC50 (Trypsin) 16.1 µM | AC50 (CAAX prenyl protease 2) 15.8 µM

COc1cc(OC)c2c(N)c(C#N)c(C(F)(F)C(F)(F)F)nc2c1
inactive: IC50 (Coagulation factor XII) > 50 µM

CCc1ccc(NC(=O)C(C)OC(=O)c2c(C)nn(Cc3ccccc3)c2Cl)cc1 (stereo not drawn)
inactive: EC50 [5] > 50 µM
active: EC50 [3] 16.4 µM
> 120 µM (not active): EC50 [2] | EC50 [4]

COc1ccc2c(c1)C(C)=CC(C)(C)N2S(=O)(=O)c1ccc(NC(C)=O)cc1
active: EC50 [7] 1.69 µM | EC50 [3] 14.4 µM | EC50 (BJ [9]) 5.92 µM | EC50 [13] 2.91 µM | EC50 [4] 0.514 µM | EC50 [15] 11.6 µM
inconclusive: EC50 (BJ [6]) 1.89 µM | EC50 [8] 11.6 µM | EC50 [10] 1.06 µM | EC50 (BJ [11]) 7.05 µM | EC50 [12] 2.91 µM | EC50 [14] 1.69 µM
> 60 µM (not active): EC50 [2]

CCOC(=O)C1=C(Cc2ccc(Cl)cc2)C(=O)c2ccccc2C1=O
active: EC50 (HEK293 [16]) 12.2 µM | IC50 [17] 5.78 µM | AC50 [18] 27.2 µM | IC50 (Tumor necrosis factor) 6.24 µM | IC50 [19] 4.3 µM | CC50 [20] 19.4 µM | IC50 (Hexokinase HKDC1) 12.2 µM | IC50 [23] 7.01 µM | IC50 [28] 43.6 µM
inactive: IC50 (Beta-galactosidase) > 66.6 µM | IC50 (HEK293 [21]) > 20 µM | IC50 (HEK293 [22]) > 20 µM | IC50 (HEK293 [24]) > 20 µM | IC50 [25] > 100 µM | EC50 [26] > 20 µM | IC50 (HEK293 [27]) > 20 µM | IC50 (HEK293 [29]) > 20 µM
